Read-outs that look alike come from different tables or passages of the source.
Experiments:
[1] = tested on: Vero-E6 cells; conditions: same study as IC50 against wt CHIKV; cited from earlier work
[2] = tested on: wt CHIKV; conditions: MOI 0.005, cited from earlier work
[3] = tested on: CHIKV^Brazil; type: cell-based, Chikungunya virus; conditions: MOI 0.64, RBV 410 µM (p < 0.001), HCQ 10 µM (p < 0.0001)
[4] = tested on: U138 cells; test: Toxicity assay; conditions: for cell damage in toxicity testing: non-infected U138, HCQ 10 µM, T-1105 10 and 50 µM, 4 days
[5] = Toxicity assay; conditions: human, U138 cells (non-infected)
[6] = tested on: wt CHIKV^Brazil; test: IC50 evaluation: inhibition of CHIKV-induced cell death; type: cell-based, Chikungunya virus; conditions: for IC50: Chikungunya virus, 96 h, read-out: IC50 (µM) U138; for dose-dependent inhibition of CPE / antiviral effect in U138: U138 cells, wt CHIKV^Brazil
[7] = Toxicity assay; conditions: African green monkey, Vero-B4 cells (non-infected)
[8] = tested on: wt CHIKV^Brazil; test: IC50 evaluation: inhibition of CHIKV-induced cell death; type: cell-based, Chikungunya virus; conditions: for dose-dependent inhibition of CPE / efficacy in Vero-B4: Vero-B4 cells, CHIKV^Brazil, T-1105 range 5–100 µM
[9] = tested on: CHIKV Indian Ocean strain 899 (lab); conditions: MOI 0.01, Vero cells; cited from earlier work
[10] = tested on: Vero-B4 cells; test: Toxicity assay; conditions: read-out: CC50 (µM) Vero-B4; non-infected Vero-B4 cells; MTS after 4 days
[11] = tested on: Vero cells; conditions: cited from earlier work

Structure (SMILES) | CC50 [1] [µM] | IC50 ([2]; wt CHIKV) [µM] | protection of U138 cells from CPE by wt CHIKV^Brazil compared with CHIKV^Ross [3] | cell damage in toxicity testing [4] | CC50 at 4 days [5] [µM] | IC50 [6] [µM] | dose-dependent inhibition of CPE / antiviral effect in U138 [6] | CC50 at 4 days [7] [µM] | IC50 ([8]; Chikungunya virus, 96 h, read-out: IC50 (µM) Vero-B4) [µM] | dose-dependent inhibition of CPE / efficacy in Vero-B4 [8] | IC50 ([2]; comparable experiments in Vero-E6 cells) [µM] | viability at 4 days, 410 µM [5] [%] | surviving cells ([8]; 1000 µM RBV (highest concentration), infected Vero-B4 cells, at MOI 0.325) [%] | IC50 [9] [µM] | CC50 ([4]; read-out: CC50 (µM) U138, non-infected U138 cells, MTS after 4 days) [µM] | CC50 [10] [µM] | CC50 [11] [µM]
CCN(CC)CCCC(C)Nc1ccnc2cc(Cl)ccc12 (stereo not shown) [CQ, chloroquine] | > 36 | 5 to 10.6 |  |  |  |  |  |  |  |  |  |  |  |  |  |  | 
CCN(CCO)CCCC(C)Nc1ccnc2cc(Cl)ccc12 (stereo not shown) [Hydroxychloroquine, hydroxychloroquine] |  |  | significantly better | Neither T-1105 nor HCQ led to significant cell damage | 35.5 | 4.14 | dose-dependent inhibition of CPE | 49.6 | 18.3 | dose-dependent inhibition of CPE |  |  |  |  |  |  | 
NC(=O)c1ncn([C@@H]2O[C@H](CO)[C@@H](O)[C@H]2O)n1 [Ribavirin, ribavirin] | > 500 | 424 | significantly better |  | > 500 | 166 | dose-dependent inhibition of CPE | > 1000 |  | dose-dependent inhibition of CPE | 424 to 766 | 70.4 ± 13.1 | 37.55 ± 6.15 |  |  |  | 
NC(=O)c1ncc[nH]c1=O [T-1105] |  |  |  | Neither T-1105 nor HCQ led to significant cell damage |  |  | dose-dependent effect |  |  | no dose-dependent efficacy |  |  |  | 7 to 47 | > 100 | > 100 | 571
